This passage reports pKa results from patent US9850343B2, “Method for producing liquid crystalline polyester, and liquid crystalline polyester” (TORAY Industries, Inc., priority 2013, dated 2017).

Usually pKa stands for the negative logarithm of the acid dissociation constant.

The data set is described as follows: Acid dissociation constant (pKa) in aqueous sulfonic acid solution. The format is physicochemical. The settings on record: aqueous sulfonic acid solution titrated at 25° C. with aqueous sodium hydroxide; from pH at 50% neutralization. The method, then:
Examples of the method for measuring pKa include a method in which an aqueous aliphatic sulfonic acid solution is titrated with a titrant such as sodium hydroxide at 25° C., and pKa is calculated from the pH value at the time point when 50% neutralization was achieved.
(7) Acid Dissociation Constant (pKa) in Aqueous Sulfonic Acid Solution
The aqueous sulfonic acid solution used in each of Examples and Comparative Examples was subjected to titration at 25° C. using an aqueous sodium hydroxide solution, and the acid dissociation constant was calculated based on the pH value at the time point when 50% neutralization was achieved.

The compound `CCCCCCCCCCCCS(=O)(=O)O` [n-dodecylsulfonic acid] returned a pKa of 0.3.
Regarding `CCS(=O)(=O)O` [ethanesulfonic acid], the pKa was -1.3.
